According to the NIST ThermoML archive (doi:10.1016/j.jct.2014.10.023):

Experiment: excess molar enthalpy (molar enthalpy of mixing); xn = mol fraction of the nth substance listed
Conditions: 101 kPa, Liquid, Calvet calorimetry

[Li] [lithium] + [Ag]
Conditions | excess molar enthalpy [kcal/mol]
873 K, x1 = 0.5664 | -2.79
873 K, x1 = 0.5985 | -2.69
873 K, x1 = 0.6338 | -2.57
873 K, x1 = 0.6719 | -2.4
873 K, x1 = 0.7007 | -2.25
873 K, x1 = 0.7274 | -2.09
873 K, x1 = 0.7617 | -1.87
873 K, x1 = 0.7867 | -1.7
873 K, x1 = 0.8408 | -1.22
873 K, x1 = 0.8972 | -0.767
873 K, x1 = 0.932 | -0.474
873 K, x1 = 0.9771 | -0.0813
1253 K, x1 = 0.1002 | -0.73
1253 K, x1 = 0.1043 | -0.754
1253 K, x1 = 0.1097 | -0.799
1253 K, x1 = 0.1152 | -0.853
1253 K, x1 = 0.1205 | -0.897
1253 K, x1 = 0.1287 | -0.956
1253 K, x1 = 0.1355 | -1.01
1253 K, x1 = 0.1461 | -1.1
1253 K, x1 = 0.1583 | -1.21
1253 K, x1 = 0.1698 | -1.35
1253 K, x1 = 0.1884 | -1.51
1253 K, x1 = 0.1995 | -1.6
1253 K, x1 = 0.2187 | -1.73
1253 K, x1 = 0.264 | -1.85
1253 K, x1 = 0.2711 | -1.88
1253 K, x1 = 0.2851 | -1.95
1253 K, x1 = 0.2976 | -2.02
1253 K, x1 = 0.3124 | -2.12
1253 K, x1 = 0.3281 | -2.2
1253 K, x1 = 0.3503 | -2.29
1253 K, x1 = 0.3774 | -2.42
1253 K, x1 = 0.4086 | -2.52
1253 K, x1 = 0.4371 | -2.61
1253 K, x1 = 0.4847 | -2.72
1253 K, x1 = 0.5245 | -2.75
